According to patent US7598271B1, “Crystalline paroxetine methane sulfonate” (Noven Therapeutics, LLC, priority 1997, dated 2009):
Structures can show the parent of a compound that is named as a salt. Where two headings read alike, the source gives them in different places.

Columns and labels:
[1] = Solubility of paroxetine salts in water; format: physicochemical; conditions: for solubility: water
[2] = causes undesired colouration during classical wet tabletting; cited from earlier work
[3] = background statement; cited from earlier work
[4] = Hygroscopicity test of paroxetine salts (40° C., 75% rel. hum); format: physicochemical
Text: (§1) In the following tables 2 and 3, examples of results of hygroscopicity tests and stability tests (in comparison with known salts of paroxetine) are presented.

[5] = Stability of paroxetine salts by HPLC (total amount of degradation); format: physicochemical
Text: as §1

[6] = background statement on known salts; cited from earlier work

Fc1ccc([C@@H]2CCNC[C@H]2COc2ccc3c(c2)OCO3)cc1 [hydrochloride anhydrate, paroxetine hydrochloride, reference compound]
Solubility in water ([1]; 20° C., hydrochloride): 8.2 mg/mL
Solubility in water ([1]; 50° C., hydrochloride): 24.2 mg/mL

Fc1ccc([C@@H]2CCNC[C@H]2COc2ccc3c(c2)OCO3)cc1 [hydrochloride hemihydrate, paroxetine hydrochloride hemihydrate, reference compound]
photostability (in words) [2]: limited photostability
solubility ([1]; 20 °C): 4.9 mg/mL
solubility ([1]; 50 °C): 12.6 mg/mL
solubility in water (in words) [3]: only limited solubility in water

Fc1ccc([C@@H]2CCNC[C@H]2COc2ccc3c(c2)OCO3)cc1 [hydrochloride, paroxetine hydrochloride, reference compound]
water content (in %) at t = 4 weeks [4]: +2.5%

CS(=O)(=O)O.Fc1ccc([C@@H]2CCNC[C@H]2COc2ccc3c(c2)OCO3)cc1 [methane sulfonate, Paroxetine Methane Sulfonate]
total amount of degradation by HPLC ([5]; 20° C., time not given): not observed
total amount of degradation by HPLC ([5]; 80° C., 3 months): <0.2%, 3 months
Solubility in 2-Propanol (20° C.): 7 mg/mL
Solubility in 2-Propanol (82° C.): 330 mg/mL
Solubility in Acetone (20° C.): 5 mg/mL
Solubility in Acetone (56° C.): 37 mg/mL
Solubility in Ethanol (20° C.): 36 mg/mL
Solubility in Ethanol (78° C.): 250 mg/mL
Solubility in Ethyl acetate (20° C.): 2 mg/mL
Solubility in Ethyl acetate (77° C.): 25 mg/mL
Solubility in n-Hexane (20° C.): <0.05 mg/mL
Solubility in n-Hexane (69° C.): 0.05 mg/mL
water content (in %) at t = 0 [4]: 0.35%
water content (in %) at t = 4 weeks [4]: +0.04%
Solubility in water ([1]; 20° C.): >1000/10 min mg/ml
Solubility in water ([1]; 50° C.): 1300 mg/mL

Cc1ccc(S(=O)(=O)O)cc1.Fc1ccc([C@@H]2CCNC[C@H]2COc2ccc3c(c2)OCO3)cc1 [p-toluene sulfonate, Paroxetine p-Toluene Sulfonate]
total amount of degradation by HPLC ([5]; 20° C., time not given): not observed
total amount of degradation by HPLC ([5]; 80° C., 3 months): <0.2%, 3 months
Solubility in 2-Propanol (20° C.): 14 mg/mL
Solubility in 2-Propanol (82° C.): >500 mg/mL
Solubility in Acetone (20° C.): 16 mg/mL
Solubility in Acetone (56° C.): 125 mg/mL
Solubility in Ethanol (20° C.): 50 mg/mL
Solubility in Ethanol (78° C.): >500 mg/mL
Solubility in Ethyl acetate (20° C.): 22 mg/mL
Solubility in Ethyl acetate (77° C.): >500 mg/mL
Solubility in n-Hexane (20° C.): <0.05 mg/mL
Solubility in n-Hexane (69° C.): <0.05 mg/mL
water content (in %) at t = 0 [4]: 0.70%
water content (in %) at t = 4 weeks [4]: <0.02%
Solubility in water ([1]; 20° C.): >1000 mg/mL
Solubility in water ([1]; 50° C.): >1000 mg/mL

Paroxetine Acetate
stability (in words) [6]: unstable

Paroxetine Maleate [reference compound]
total amount of degradation by HPLC ([5]; 20° C., 12 months): 0.2%, 12 months
total amount of degradation by HPLC ([5]; 80° C., 5 days): >50%, 5 days
stability (in words) [6]: unstable
